{"source": "paper PMC6891768", "about": "(Marine Drugs, 2019)", "key": {"rat brain α4β2 nAChRs [1]": {"molecular_target": "T1, rat brain α4β2 nAChRs (Rattus norvegicus, UniProt P09483+P12390)", "T1 construct": "from tissue; host or cells: whole rat brain membranes", "T1 sequence (P09483 31-630)": "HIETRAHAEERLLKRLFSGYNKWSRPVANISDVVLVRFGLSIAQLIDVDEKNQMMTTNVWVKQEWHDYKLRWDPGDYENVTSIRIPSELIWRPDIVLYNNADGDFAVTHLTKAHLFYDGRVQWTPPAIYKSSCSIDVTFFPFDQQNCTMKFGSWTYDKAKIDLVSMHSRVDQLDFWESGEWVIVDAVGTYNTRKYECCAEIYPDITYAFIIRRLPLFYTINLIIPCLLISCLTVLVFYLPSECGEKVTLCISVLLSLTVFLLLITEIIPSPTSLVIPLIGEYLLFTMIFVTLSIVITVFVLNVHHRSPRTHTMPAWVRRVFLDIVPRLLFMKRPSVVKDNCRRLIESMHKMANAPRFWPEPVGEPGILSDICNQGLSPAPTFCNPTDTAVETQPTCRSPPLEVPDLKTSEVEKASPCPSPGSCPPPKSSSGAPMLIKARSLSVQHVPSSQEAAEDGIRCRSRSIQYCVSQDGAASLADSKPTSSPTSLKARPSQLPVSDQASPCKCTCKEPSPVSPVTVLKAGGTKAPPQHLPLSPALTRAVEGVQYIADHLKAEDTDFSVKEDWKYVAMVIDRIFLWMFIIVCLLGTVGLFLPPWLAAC", "T1 sequence (P12390 25-500)": "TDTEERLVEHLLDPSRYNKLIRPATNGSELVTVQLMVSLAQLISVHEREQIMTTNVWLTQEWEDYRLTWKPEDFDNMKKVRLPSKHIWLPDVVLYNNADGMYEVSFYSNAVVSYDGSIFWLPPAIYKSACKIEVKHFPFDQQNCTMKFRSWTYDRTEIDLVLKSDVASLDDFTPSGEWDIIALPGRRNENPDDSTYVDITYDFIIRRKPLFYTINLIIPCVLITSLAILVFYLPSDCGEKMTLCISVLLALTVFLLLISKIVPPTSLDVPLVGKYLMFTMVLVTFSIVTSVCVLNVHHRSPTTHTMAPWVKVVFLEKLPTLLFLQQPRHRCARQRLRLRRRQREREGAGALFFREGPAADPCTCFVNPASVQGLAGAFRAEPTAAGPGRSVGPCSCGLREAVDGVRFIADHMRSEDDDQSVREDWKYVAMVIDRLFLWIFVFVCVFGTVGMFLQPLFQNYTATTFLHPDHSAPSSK", "test": "[3H]-methylcarbamylcholine binding to rat brain membranes, pH dependence", "text": "Initially, we measured the pH-dependent binding of [^3H]-methylcarbamylcholine ([^3H]-MCC) to rat brain α4β2 nAChRs. In the absence of anabaseine we found a large (approximately 3-fold) enhancement of [^3H]-MCC binding as pH increased from 6.0 to 7.8. While interesting in its own regard, since MCC is permanently ionized, this marked pH dependence of [^3H]-MCC nAChR affinity complicated the analysis of the effect of pH on anabaseine binding, which was indirectly measured by [^3H]-MCC displacement. Anabaseine inhibition of [^3H]-MCC binding at each pH in Figure 2 is expressed with respect to the binding of [^3H]-MCC alone at the same pH, so as to compensate for [^3H]-MCC binding pH dependence. […]\nFigure 2 Concentrations of the three major forms of anabaseine as a function of pH as determined by UV spectrophotometry. Left Ordinate: Concentration of each form expressed as % of the total anabaseine concentration. […]\n[^3H]-[…] ([^3H]-MCC) binding assays with rat brain membranes were carried out as previously reported with a final concentration of 0.5 nM [^3H]-MCC [8, 54]; 2.8 µM atropine sulfate (Sigma-Aldrich) was added to inhibit binding to muscarinic receptors. […] Nonspecific binding was measured in the presence of 1 mM (S)-nicotine hydrogen tartrate (Sigma-Aldrich). […]"}, "rat brain α4β2 nAChRs [2]": {"molecular_target": "T1, rat brain α4β2 nAChRs", "conditions": "read-out: Kd of radioligand with rat brain membranes; cited from earlier work"}, "[3]": {"molecular_target": "T2, human α4β2 neuronal nAChR expressed in tsA201 cells (Homo sapiens, UniProt P17787+P43681)", "T2 construct": "expressed in transfected cells", "test": "Activation of human α4β2 neuronal nAChR, membrane depolarization FlexStation assay", "type": "cell-based", "protocol": "Figure 3 Activation of the human α4β2 neuronal nAChR expressed in tsA201 cells as measured by membrane depolarization using the FlexStation assay. Each point generally is the mean of four separate measurements. All responses were normalized with respect to the response of the cells to 0.5 μM epibatidine. Potency and efficacy estimates from these curves are found in Table 1.\nTsA201 cells expressing human α4β2 were maintained in media consisting of Dulbecco’s Modified Eagle medium supplemented with 10% FBS, 100 units/mL penicillin and 100 μg/mL streptomycin, 2 mM L-glutamine, 0.5 mg/mL zeocin and 0.6 mg/mL geneticin [55]. Cells were grown in 75 cm^2 culture flasks, which were housed in a humidified incubator (Fisher Scientific, Atlanta, GA, USA at 37 °C in an atmosphere of 5% CO2. They were grown to around 80–90% confluence after harvesting with 0.25% trypsin and being split weekly at a subcultivation ratio of between 1:6 and 1:10.\n(§1) Our experimental protocol was based on the initial study of Fitch et al.. Cells were seeded at a density of roughly 5 × 10^4 to 10^5 cells/well in 96-well flat-bottom black wall culture plates coated with 50 μg /ml poly-D-lysine hydrobromide (Sigma-Aldrich, 70–150 kDa) and grown overnight in 100 μL culture medium. A proprietary membrane potential dye obtained from Molecular Devices (San Diego, CA, USA) was prepared by dissolving one bottle of dye into 30 mL of Hanks Saline (pH = 7.4) containing 20 mM HEPES buffer. The cells were incubated with 100 μL of dye for 30 min at 37 °C prior to the robotically controlled concentration-response experiment. Serial dilutions of a compound for dose-response analysis were prepared in 96-well plates by evaporation of a methanolic stock solution and then reconstituted in the appropriate volume of Hanks saline. Fluid transfer and readings were performed by a FlexStation fluorimeter (Molecular Devices). Excitation and emission wavelengths were set to 530 nm and 565 nm with a cutoff of 550 nm. The first 17 s were used as a basal reading. At 18 s, a test compound was added to determine the EC50, followed by addition of 25 μL KCl (40 mM final concentration) at 160 s to serve as a fluorescence calibrant. Compounds that had no measurable depolarizing activity on the TsA201 cells were then tested for their ability to inhibit a 5 µM control ACh response. Data were fitted and graphed with Prism (GraphPad) to determine the EC50."}, "rat brain α4β2 nAChR": {"molecular_target": "T3, rat brain α4β2 nAChR (Rattus norvegicus, UniProt P09483+P12390)", "T3 construct": "from tissue; host or cells: whole rat brain membranes", "T3 sequence (P09483 31-630)": "as the sequence (P09483 31-630) above", "T3 sequence (P12390 25-500)": "as the sequence (P12390 25-500) above", "test": "[3H]-cytisine displacement binding, rat brain membranes"}, "rat α7 nAChR": {"molecular_target": "T4, rat α7 nAChR (Rattus norvegicus, UniProt Q05941)", "T4 construct": "from tissue; host or cells: rat brain membranes", "T4 sequence (Q05941 23-502)": "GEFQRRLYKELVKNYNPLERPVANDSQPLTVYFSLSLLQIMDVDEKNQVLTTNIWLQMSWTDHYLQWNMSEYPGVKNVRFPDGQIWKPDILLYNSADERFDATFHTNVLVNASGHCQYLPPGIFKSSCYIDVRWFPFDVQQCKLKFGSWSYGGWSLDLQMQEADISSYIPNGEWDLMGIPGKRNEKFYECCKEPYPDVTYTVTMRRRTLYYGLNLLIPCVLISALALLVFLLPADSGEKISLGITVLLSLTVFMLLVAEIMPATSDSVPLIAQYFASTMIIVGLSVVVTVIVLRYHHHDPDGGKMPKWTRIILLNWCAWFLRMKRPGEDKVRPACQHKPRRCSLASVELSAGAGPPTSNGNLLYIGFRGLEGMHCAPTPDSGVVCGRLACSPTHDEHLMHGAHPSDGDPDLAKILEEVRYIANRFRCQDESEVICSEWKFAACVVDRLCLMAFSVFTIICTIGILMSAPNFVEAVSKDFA", "test": "biochemical", "type": "binding"}, "[4]": {"molecular_target": "T5, human fetal (TE671 cells) skeletal muscle nAChR (Homo sapiens, UniProt P02708+P07510+Q07001)", "T5 construct": "endogenous in cells; host or cells: TE671 cells (human)", "T5 sequence (Q07001 22-517)": "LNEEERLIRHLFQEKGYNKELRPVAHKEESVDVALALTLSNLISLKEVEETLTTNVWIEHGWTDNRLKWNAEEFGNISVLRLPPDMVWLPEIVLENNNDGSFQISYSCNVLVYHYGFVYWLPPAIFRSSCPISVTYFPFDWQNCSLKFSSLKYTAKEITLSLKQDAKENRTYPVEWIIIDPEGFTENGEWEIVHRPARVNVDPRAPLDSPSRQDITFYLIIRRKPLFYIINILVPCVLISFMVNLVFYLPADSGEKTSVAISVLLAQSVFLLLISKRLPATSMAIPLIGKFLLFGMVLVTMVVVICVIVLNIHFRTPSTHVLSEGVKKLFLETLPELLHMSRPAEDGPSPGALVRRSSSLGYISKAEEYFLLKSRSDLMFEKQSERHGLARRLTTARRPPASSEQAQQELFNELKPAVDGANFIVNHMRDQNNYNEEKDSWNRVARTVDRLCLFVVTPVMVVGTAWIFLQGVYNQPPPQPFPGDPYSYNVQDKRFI", "T5 sequence (P02708 21-457)": "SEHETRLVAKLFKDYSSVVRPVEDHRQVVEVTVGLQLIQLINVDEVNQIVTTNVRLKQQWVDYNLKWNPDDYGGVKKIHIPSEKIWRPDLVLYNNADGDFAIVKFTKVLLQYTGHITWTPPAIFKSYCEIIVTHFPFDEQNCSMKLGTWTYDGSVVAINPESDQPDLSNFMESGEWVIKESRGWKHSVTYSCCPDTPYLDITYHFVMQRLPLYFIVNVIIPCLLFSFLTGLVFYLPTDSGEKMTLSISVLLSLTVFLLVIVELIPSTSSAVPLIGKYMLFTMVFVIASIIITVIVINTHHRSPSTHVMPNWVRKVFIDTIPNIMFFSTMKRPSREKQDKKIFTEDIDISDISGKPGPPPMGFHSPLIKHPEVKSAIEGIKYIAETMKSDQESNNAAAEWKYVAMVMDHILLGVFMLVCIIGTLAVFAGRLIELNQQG", "T5 sequence (P07510 23-517)": "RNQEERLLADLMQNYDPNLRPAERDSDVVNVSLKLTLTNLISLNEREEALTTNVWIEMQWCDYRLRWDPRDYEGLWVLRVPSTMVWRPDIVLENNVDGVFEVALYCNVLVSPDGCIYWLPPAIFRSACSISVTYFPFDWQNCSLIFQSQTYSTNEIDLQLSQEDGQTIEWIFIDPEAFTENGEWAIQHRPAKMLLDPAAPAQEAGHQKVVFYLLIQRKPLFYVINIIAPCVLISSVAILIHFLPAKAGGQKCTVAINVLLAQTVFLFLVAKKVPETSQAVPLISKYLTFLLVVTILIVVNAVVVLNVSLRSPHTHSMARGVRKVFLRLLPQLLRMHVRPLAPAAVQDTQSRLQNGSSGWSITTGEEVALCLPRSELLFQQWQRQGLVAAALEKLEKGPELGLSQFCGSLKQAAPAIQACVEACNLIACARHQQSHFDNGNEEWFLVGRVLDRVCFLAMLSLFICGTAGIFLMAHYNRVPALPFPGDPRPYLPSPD", "T5 sequence (P11230 24-501, further chain)": "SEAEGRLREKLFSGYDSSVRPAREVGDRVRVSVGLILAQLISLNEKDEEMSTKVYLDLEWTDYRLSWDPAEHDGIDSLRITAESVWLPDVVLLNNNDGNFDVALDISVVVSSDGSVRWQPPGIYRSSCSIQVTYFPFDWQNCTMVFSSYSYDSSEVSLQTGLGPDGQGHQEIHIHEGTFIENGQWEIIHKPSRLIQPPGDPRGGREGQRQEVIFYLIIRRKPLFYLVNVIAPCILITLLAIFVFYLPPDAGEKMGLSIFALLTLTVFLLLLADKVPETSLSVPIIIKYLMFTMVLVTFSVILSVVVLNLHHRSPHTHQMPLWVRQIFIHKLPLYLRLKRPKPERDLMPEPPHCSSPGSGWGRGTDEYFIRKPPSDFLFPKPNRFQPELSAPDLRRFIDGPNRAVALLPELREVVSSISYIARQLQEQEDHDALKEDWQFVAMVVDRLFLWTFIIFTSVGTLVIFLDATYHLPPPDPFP", "test": "Activation of human fetal skeletal muscle nAChR (TE671 cells), membrane depolarization FlexStation assay", "type": "cell-based", "protocol": "Figure 4 Activation of the human fetal (TE671 cells) skeletal muscle nAChR by the various stable anabaseine analogs measured by membrane depolarization using the FlexStation assay. Each point is generally the mean of four separate measurements. Responses were normalized to the 5 μM epibatidine response. Potency and efficacy estimates from these curves are found in Table 1.\nas §1"}, "[5]": {"molecular_target": "T6, Torpedo electric organ membrane nAChRs (Tetronarce californica, UniProt P02710+P02714+P02718)", "T6 construct": "from tissue; host or cells: Torpedo electric organ membranes", "test": "biochemical", "type": "binding"}, "[6]": {"tested_on": "vertebrate brain and neuromuscular nAChRs", "test": "Overall comparison of agonist potency and binding affinity at vertebrate nAChRs", "conditions": "for activity relative to that predicted if the one form was solely active: several vertebrate brain and neuromuscular nAChRs", "text": "PTHP was the only anabaseine analog that approached anabaseine in potency and binding affinity.\nThe ability of a variety of 2-(aryl)-1,4,5,6-tetrahydropyrmidines to block neuromuscular nAChRs and produce teratogenic effects in chick embryos was reported long ago [45, 46]. Some of these compounds were reported to be nAChR agonists. The only study of PTHP on neurons was that of Upshall et al. on leech Retzius cells. Our results also indicate that PTHP is a potent agonist at neuronal as well as neuromuscular nAChRs. […] For PTHP to be equipotent with anabaseine, based on the I^+ form being the only active form, its EC50 would need to be ~1/3 of the EC50 of anabaseine, since the anabaseine (I^+) is ~1/3 of its total concentration."}, "[7]": {"conditions": "cited from earlier work"}, "human GABAA receptor": {"molecular_target": "T7, human GABAA receptor (UniProt P28472+P62813)", "T7 construct": "host or cells: WSS1 cells (HEK cell line)", "T7 sequence (P62813 28-455)": "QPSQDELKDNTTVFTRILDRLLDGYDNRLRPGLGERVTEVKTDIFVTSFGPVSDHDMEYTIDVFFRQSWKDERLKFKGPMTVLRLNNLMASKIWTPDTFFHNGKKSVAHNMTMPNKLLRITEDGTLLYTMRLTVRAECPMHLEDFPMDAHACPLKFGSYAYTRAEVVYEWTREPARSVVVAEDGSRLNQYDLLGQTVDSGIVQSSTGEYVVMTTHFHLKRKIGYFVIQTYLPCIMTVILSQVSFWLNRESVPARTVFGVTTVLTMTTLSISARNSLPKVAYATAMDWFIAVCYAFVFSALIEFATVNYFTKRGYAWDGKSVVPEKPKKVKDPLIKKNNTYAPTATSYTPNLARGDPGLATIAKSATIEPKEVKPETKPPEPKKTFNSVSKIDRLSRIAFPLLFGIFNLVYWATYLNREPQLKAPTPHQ", "T7 sequence (P28472 26-473)": "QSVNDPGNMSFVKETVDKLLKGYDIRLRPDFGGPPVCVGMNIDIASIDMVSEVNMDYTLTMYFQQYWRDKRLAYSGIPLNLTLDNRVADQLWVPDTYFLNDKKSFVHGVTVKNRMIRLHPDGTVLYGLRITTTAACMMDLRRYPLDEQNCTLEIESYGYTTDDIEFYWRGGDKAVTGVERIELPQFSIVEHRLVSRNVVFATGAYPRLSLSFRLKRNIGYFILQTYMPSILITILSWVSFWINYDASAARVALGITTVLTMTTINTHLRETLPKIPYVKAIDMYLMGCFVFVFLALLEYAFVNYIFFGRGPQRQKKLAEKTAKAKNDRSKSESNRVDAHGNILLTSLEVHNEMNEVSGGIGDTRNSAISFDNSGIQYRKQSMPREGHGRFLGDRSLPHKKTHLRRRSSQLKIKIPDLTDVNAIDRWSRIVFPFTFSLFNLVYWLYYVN", "T7 sequence (P18508 39-466 partner)": "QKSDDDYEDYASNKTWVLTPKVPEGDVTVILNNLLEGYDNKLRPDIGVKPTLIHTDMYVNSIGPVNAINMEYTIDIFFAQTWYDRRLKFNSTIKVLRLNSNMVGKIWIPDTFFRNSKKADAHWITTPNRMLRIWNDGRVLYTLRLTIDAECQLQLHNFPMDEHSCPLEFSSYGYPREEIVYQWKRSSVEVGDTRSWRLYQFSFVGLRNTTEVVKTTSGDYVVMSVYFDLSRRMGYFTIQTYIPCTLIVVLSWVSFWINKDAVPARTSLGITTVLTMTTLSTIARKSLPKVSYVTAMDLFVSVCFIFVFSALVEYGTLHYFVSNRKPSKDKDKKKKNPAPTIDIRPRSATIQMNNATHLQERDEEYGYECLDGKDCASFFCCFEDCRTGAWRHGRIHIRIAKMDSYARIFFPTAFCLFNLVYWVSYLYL", "test": "GABAA receptor activation, membrane depolarization FlexStation assay (WSS1 cells)", "type": "cell-based", "conditions": "human GABAA receptor in HEK-derived WSS1 cells", "protocol": "Figure 5 Investigation of possible activation of the human GABAA receptor measured by membrane depolarization using a FlexStation assay. Each point is the mean of three separate measurements.\nWSS1 cells from ATCC (Manassas, VA, USA) which express functional GABAA receptors were cultured as previously described by Wong et al.. The cells were grown to near confluence and then transferred to black well, clear bottom 96-well assay plates (Corning Incorporated, Corning, NY, USA) 12–18 h prior to the assay. Molecular Devices blue dye (Sunnyvale, CA, USA) was reconstituted as previously described. The WSS1 cells were allowed to come to room temperature, the culture medium was then aspirated, replaced with the blue dye and equilibrated for 30 min before being placed on a FlexStation 3 plate reader (Molecular Devices, Sunnyvale, CA, USA). […] Programmed readings and data analysis were performed as previously described."}, "[8]": {"test": "Ionization and ring-chain form distribution in water", "type": "physicochemical", "text": "Figure 2 Concentrations of the three major forms of anabaseine as a function of pH as determined by UV spectrophotometry. Left Ordinate: Concentration of each form expressed as % of the total anabaseine concentration. The red curve is the estimated cyclic imine concentration and the blue curve is the concentration of the cyclic iminium or the monocationic ammonium-ketone form of anabaseine (Assuming that KH = 1.0, the concentrations of these ionized forms are equal). Right ordinate: pH dependence of anabaseine inhibition of [^3H]-MCC binding to rat brain α4β2 receptors (Standard error bars included). Anabaseine inhibition (mean ± SEM) at each pH was the average of six replicate measurements.\nSince the two monocationic forms show the same pH dependence and the same concentration when expressed as % of total anabaseine, another approach was required to assess their activities separately. We resorted to synthesizing and testing stable analogs that resemble the three anabaseine forms. […] The monocationic ammonium-ketone open-chain form analog selected was 5-methylamino-1-(3-pyridyl)-1-pentanone, MAPP, shown in Figure 1; it mainly ([…]) exists in their open-chain form in water at physiological pH; its cyclic imine or iminium form, N-methylanabaseine, is present in very small concentration (≤5%). […]"}, "[9]": {"conditions": "no reference given; cited from earlier work"}, "[10]": {"conditions": "displacement of [3H]-cytisine, rat brain membranes, read-out: Ki Neuronal nAChR Rat α4β"}}, "note": "“Also recorded” adds a separate entry of the source. Like-named read-outs stand apart in the source and are kept apart here."}
{"smiles": "[3H]CNC(=O)OCC[N+](C)(C)C", "note": "[[^3H]-MCC, [^3H]-methylcarbamylcholine]", "values": [{"measurement": "enhancement of binding with increasing pH", "setting": "rat brain α4β2 nAChRs [1]; pH increased from 6.0 to 7.8, absence of anabaseine", "value": "approximately 3 fold"}]}
{"smiles": "CNC(=O)OCC[N+](C)(C)C", "note": "[[^3H]-MCC, [^3H]-methylcarbamylcholine]", "values": [{"measurement": "Kd", "setting": "rat brain α4β2 nAChRs [2]", "value": 0.011, "unit": "µM"}]}
{"smiles": "CNCCCCC(=O)c1cccnc1", "note": "[MAPP, 5-methylamino-1-(3-pyridyl)-1-pentanone]", "values": [{"measurement": "EC50", "setting": "[3]", "value": "> 2000", "unit": "µM"}, {"measurement": "Ki", "setting": "rat brain α4β2 nAChR; [10]", "value": 10, "unit": "µM"}, {"measurement": "Ki", "setting": "rat α7 nAChR", "value": "> 2000", "unit": "µM"}, {"measurement": "EC50", "setting": "[4]", "value": "> 1000", "unit": "µM"}, {"measurement": "IC50", "setting": "[5]", "value": "> 500", "unit": "µM"}, {"measurement": "activity relative to that predicted if the one form was solely active", "setting": "[6]", "value": "≤ 1", "unit": "%"}, {"measurement": "concentration of cyclic imine or iminium form (N-methylanabaseine)", "setting": "[7]; in water at physiological pH", "value": "≤ 5", "unit": "%"}]}
{"smiles": "c1cncc(C2=NCCC2)c1", "note": "[myosmine]", "values": [{"measurement": "GABAA receptor agonist activity", "setting": "human GABAA receptor", "value": "not GABAA agonists; also recorded: no activity was detected"}]}
{"smiles": "Cl.c1cncc(C2=NCCCN2)c1", "note": "[PTHP, 2-(3-pyridyl)-1,4,5,6-tetrahydropyrimidine hydrochloride]", "values": [{"measurement": "EC50", "setting": "[3]", "value": "3.64 ± 1.2", "unit": "µM"}, {"measurement": "Ki", "setting": "rat brain α4β2 nAChR; [10]", "value": "0.38 ± 0.07", "unit": "µM"}, {"measurement": "Ki", "setting": "rat α7 nAChR", "value": "1.54 ± 0.76", "unit": "µM"}, {"measurement": "EC50", "setting": "[4]", "value": "1.7 ± 0.3", "unit": "µM"}, {"measurement": "IC50", "setting": "[5]", "value": "0.47 ± 0.01", "unit": "µM"}, {"measurement": "fraction ionized", "setting": "[8]; pH 7.4, predicted", "value": "> 99", "unit": "%"}, {"measurement": "potency relative to that predicted for the anabaseine cyclic iminium form", "setting": "[6]; from Figure 3, Figure 4 and Table 1", "value": "approximately 30%"}, {"measurement": "pKa of amidinium group", "setting": "[9]", "value": "> 10"}]}
{"smiles": "c1ccc(-c2cccnc2)nc1", "note": "[2,3′-Bipyridyl, 2,3′-bipyridyl]", "values": [{"measurement": "EC50", "setting": "[3]", "value": "> 1000", "unit": "µM"}, {"measurement": "Ki", "setting": "rat brain α4β2 nAChR; [10]", "value": "> 50", "unit": "µM"}, {"measurement": "Ki", "setting": "rat α7 nAChR", "value": "> 2300", "unit": "µM"}, {"measurement": "EC50", "setting": "[4]", "value": "660 ± 60", "unit": "µM"}, {"measurement": "IC50", "setting": "[5]", "value": "343 ± 48", "unit": "µM"}, {"measurement": "fraction of molecules unionized", "setting": "[8]; pH 7.4", "value": "> 99.9", "unit": "%"}, {"measurement": "activity relative to that predicted if the one form was solely active", "setting": "[6]", "value": "≤ 1", "unit": "%"}]}
{"smiles": "c1cncc(C2=NCCCC2)c1", "note": "[Anabaseine, anabaseine, reference compound]", "values": [{"measurement": "EC50", "setting": "[3]; tsA201 cells, membrane depolarization, normalized to 0.5 μM epibatidine response, read-out: EC50 Neuronal nAChR Human α4β2", "value": "2.85 ± 1", "unit": "µM"}, {"measurement": "Ki", "setting": "rat brain α4β2 nAChR", "value": "0.096 ± 0.01", "unit": "µM"}, {"measurement": "Ki", "setting": "rat α7 nAChR; read-out: Ki Neuronal nAChR Rat α7", "value": "1.87 ± 0.1", "unit": "µM"}, {"measurement": "EC50", "setting": "[4]; TE671 cells, membrane depolarization, normalized to 5 μM epibatidine response, read-out: EC50 Neuromuscular nAChR Human TE671", "value": 1.2, "unit": "µM"}, {"measurement": "IC50", "setting": "[5]; read-out: IC50 Neuromuscular nAChR Torpedo Electric Organ", "value": "0.29 ± 0.18", "unit": "µM"}, {"measurement": "GABAA receptor agonist activity", "setting": "human GABAA receptor", "value": "not GABAA agonists; also recorded: no activity was detected"}, {"measurement": "pH dependence of inhibition (displacement) of [3H]-MCC binding", "setting": "rat brain α4β2 nAChRs [1]; fixed anabaseine concentration, pH 5.8 to 7.8, relative to [3H]-MCC alone at the same pH", "value": "did decrease with increased pH"}, {"measurement": "cyclic iminium (I+) form as fraction of total concentration", "setting": "[7]; pH 7.4", "value": "~ 1/3"}]}
